Test results: US9791449B2, “Ovarian cancer stem cells and methods of isolation and uses thereof” (THE GENERAL HOSPITAL CORPORATION, priority 2011, dated 2017)
Entries after “also recorded” stand apart in the source; their conditions may differ.

Tests used:
[1] = test system: 3+/Ecad− OVCAR-5 cells; assay: Colony formation assay of FACS-separated cells; assay type: cell-based, human; conditions: OVCAR-5 3+/Ecad− cells, 2000 cells in six-well plates, MIS 30 ug/ml or Doxorubicin 30 nM vs media, 14 days
Protocol: Colony formation was performed as previously described (4; wei 2010). 3+/Ecad− or 3−/Ecad+ cells separated from the ovarian cancer cell lines were treated with MIS or doxorubicin, cisplatin, or taxol, then plated on 6-well plates containing 2 ml/well complete DMEM medium at 500, 1000, or 2000 cells/well, and incubated for 14 days at 37° C., with a media change at day 7. Cells separated from primary ascites were plated on 12-well plates coated by metrigel or by agarose for colony formation assays at 25,000, 50,000, or 100,000 cells/well. Cells were seeded on 1:2 metrigel or in 0.4% agarose over a 0.8% layer, and incubated for 3-4 weeks at 37° C. At day 14 (cell lines) or day 21 (ascites), plates were washed with 1×PBS, and cells fixed with methanol. Resulting colonies were stained with Giemsa and the stained area captured and analyzed using Image J (Rasband, NIH, USA, http://rsb.info.nih.gov/ij/). Large colonies greater than 4 mm at 10× magnification were also counted and compared.

[2] = test system: OVCAR-5 cells; assay: Cell proliferation assay in monolayer (trypan blue count plus flow cytometry); assay type: cell-based, human; conditions: for proliferation of 3+/Ecad+ population / proliferation of 3+/Ecad− population: OVCAR-5, doxorubicin 60 nM, 1, 2 and 3 days
Protocol: OVCAR-5 cells were seeded in T-75 flasks at different densities (1.6×10^6, 1.2×10^6, 0.8×10^6 cells) with DMEM in 10% FCS, incubated for 24 h, and then treated with either PBS (control) or 60 nM doxorubicin for 24, 48, and 72 h. Cells seeded at 0.8×10^6 were also treated with cisplatin (0.2, 0.5, 1 μM) for 72 h. Harvested total viable cells were counted by trypan blue staining in a hemocytometer and stained with antihuman CD24-PE, anti-mouse/human CD44-APC/Cy7, anti-human Epcam-APC, and anti-human Ecadherin-FITC. Flow cytometry was performed to analyze for the absolute number of 3+/Ecad− and 3+/Ecad+ cells, which were calculated from the total viable cell numbers by analyzing the percentage of each population adjusted for seeding density (1×, 1.5×, and 2×, respectively).

[3] = test system: OVCAR-5 cells; assay: Cell cycle analysis by flow cytometry; assay type: cell-based, human
Protocol: OVCAR-5 was grown to 50-60% confluency in DMEM with 10% FCS, untreated or treated with 100 μg/mL (714 nM) MIS or 60 nM doxorubicin for 48 h, harvested, and incubated with 10 μg/mL Hoechst 33342 at 37° C. for 30 min or 40 μg/mL propidium iodide (Sigma) at 25° C. for 30 min. Cells were stained with anti-human CD24-PE, anti-mouse/human CD44-APC/Cy7, anti-human Epcam-APC, and anti-human Ecadherin-FITC for 20 min at 4° C. and fixed in paraformaldehyde (1%), and the cell cycle was analyzed using the SORP LSRII.

[4] = test system: MOVCAR-7 and MOVCAR-8 cell lines; assay: qPCR of CDK inhibitor mRNAs relative to GAPDH; assay type: cell-based, mouse
Protocol: Total microRNA (miRNAs) were extracted from the different cell lines HOSE-4, HOSE-6, OVCAR-5, OVCAR-3, OVCAR-8, IGROV-1, and SKOV-3 using the miRNeasy Mini kit (QIAGEN) and reverse-transcribed to cDNAs using the TaqMan MicroRNA Reverse Transcription Kit (Applied Biosystems). Levels of Let-7c miRNAs were measured by quantitative PCR using TagMan Let-7 probes (Applied Biosystems; part no. 4373167) with U47 RNA as internal standard for normalization. Total mRNAs were also extracted from separated and unseparated OVCAR-5, MOVCAR-7, and MOVCAR-8 cell lines using an RNeasy Mini kit (QIAGEN) and reverse-transcribed to cDNAs using the SuperScript III Reverse Transcription Kit (Invitrogen). Levels of Lin28 and cyclin-dependent kinase (CDK) inhibitor mRNAs were measured by quantitative PCR with GAPDH as an internal standard using the following primers: […]
LIN28 F ([…])(SEQ ID NO: 34) and R ([…])(SEQ ID NO: 35); p15 F ([…])(SEQ ID NO: 36) and R ([…])(SEQ ID NO: 37); p16 F ([…])(SEQ ID NO: 38) and R ([…])(SEQ ID NO: 39); p18 F ([…])(SEQ ID NO: 40) and R ([…])(SEQ ID NO: 41); p19F ([…])(SEQ ID NO: 42) and R ([…])(SEQ ID NO: 43); p21 F ([…])(SEQ ID NO: 44) and R ([…])(SEQ ID NO: 45); p27 F ([…])(SEQ ID NO: 46) and R ([…])(SEQ ID NO: 47); CDK2 F ([…])(SEQ ID NO: 48) and R ([…])(SEQ ID NO: 49); CDK4 F ([…])(SEQ ID NO: 50) and R([…])(SEQ ID NO: 51); CDK6 F ([…])(SEQ ID NO: 52) and R ([…])(SEQ ID NO: 53); and GAPDH F ([…])(SEQ ID NO: 54) and R ([…])(SEQ ID NO: 55). Relative fold changes of Let-7c miRNAs and Lin28 and CDK inhibitor mRNAs were calculated as ΔCt or ΔΔCt (1) (n=3 for each primer).

[5] = test system: ovarian cancer cells marked by CD44, CD24, and Epcam (3+); conditions: after treatment with chemotherapeutics; cited from earlier work
[6] = absolute cell number, listed as Doxorubicin
[7] = OVCAR-5, cisplatin 0.2, 0.5 and 1 μM, 3 d, absolute cell number

| SMILES | colony formation of 3+/Ecad− cells [1] | colony formation of 3+/Ecad− cells ([1]; listed as Doxorubicin) | proliferation of 3+/Ecad+ population ([2]; absolute cell number) | proliferation of 3+/Ecad− population ([2]; absolute cell number) | proliferation of 3+/Ecad+ population [2, 6] | proliferation of 3+/Ecad− population [2, 6] | proliferation of total viable cells ([2]; unseparated OVCAR-5, doxorubicin 60 nM, 1, 2 and 3 days) | proliferation of total viable cells ([2]; unseparated OVCAR-5, doxorubicin 60 nM, 1, 2 and 3 days, listed as Doxorubicin) | percentage of 3+/Ecad− cells in G1 ([3]; 100 μg/mL (714 nM) MIS or 60 nM doxorubicin, 48 h) | S or G2 distributions of either 3+Ecad− or 3−Ecad+ ([3]; doxorubicin 60 nM, 2 d) | p15 expression ([4]; MOVCAR-7 and -8, 50 μg/mL MIS or 60 nM doxorubicin vs vehicle, 4 h) | other CDK inhibitors mRNA levels (p18, p19, p21, p27) ([4]; MOVCAR-7 or -8, 50 μg/mL MIS or 60 nM doxorubicin, 4 h) | kinases tested (CDK2, CDK4, CDK6) ([4]; transgenic cell lines treated with MIS or doxorubicin, data not shown) | relative numbers of 3+ enriched population compared to 3− cells [5] | proliferation of total viable cells ([2]; OVCAR-5, cisplatin 0.2, 0.5 and 1 μM, 3 d) | proliferation of 3+Ecad− population [2, 7] | proliferation of 3−Ecad+ population [2, 7] | proliferation of 3+Ecad− population ([2]; OVCAR-5, cisplatin 0.2, 0.5 and 1 μM, 3 d, absolute cell number, listed as Cisplatin) |
| --- | --- | --- | --- | --- | --- | --- | --- | --- | --- | --- | --- | --- | --- | --- | --- | --- | --- | --- |
| COc1cccc2c1C(=O)c1c(O)c3c(c(O)c1C2=O)C[C@@](O)(C(=O)CO)C[C@@H]3O[C@H]1C[C@H](N)[C@H](O)[C@H](C)O1 [doxorubicin, reference compound] | significantly increased number of colonies; also recorded: significantly increases; also recorded: stimulated; also recorded: paradoxically increased; also recorded: significantly increased colony numbers | paradoxically increased significantly | decreased | paradoxically increased | inhibits proliferation | stimulates | significant inhibition | inhibits proliferation | decreased | did not statistically affect | decreased; also recorded: significant and opposite responses | did not regulate significantly | unaffected | increased |  |  |  |  |
| N.N.[Cl][Pt][Cl] [cisplatin] |  |  |  |  |  |  |  |  |  |  |  |  |  | increased | inhibits proliferation | increased | inhibits proliferation | stimulates |
| CC(=O)O[C@H]1C(=O)[C@@]2(C)[C@H]([C@H](OC(=O)c3ccccc3)[C@]3(O)C[C@H](OC(=O)[C@H](O)[C@@H](NC(=O)c4ccccc4)c4ccccc4)C(C)=C1C3(C)C)[C@]1(OC(C)=O)CO[C@@H]1C[C@@H]2O [paclitaxel] |  |  |  |  |  |  |  |  |  |  |  |  |  | increased |  |  |  |  |
